Measured values reported in patent US7125897B1, “Combined therapies for atherosclerosis treatment” (Vasogen Ireland Limited, priority 1999, dated 2006).

What was measured:
Format in all cases: in vivo, human
[1] = Ankle/brachial artery pressure ratio (ABPI) in patient with intermittent claudication; details: left leg; for ankle/brachial artery pressure ratio (ABPI): margin of error 0.1
Method: (§1) The stressed blood treatment used in the study involves the collection of 10 ml of a patient's venous blood into 2-ml of sodium citrate 3.13% as anticoagulant. The blood sample is transferred to a sterile, disposable low-density polyethylene vessel (model #V7002) for ex vivo treatment and is then exposed to the following three stimuli: • 1) An elevated temperature of 42.5° C.±1.0° C. at steady state controlled and monitored with a thermocouple; • 2) a gas mixture of medical oxygen containing 14.5±1.0 ug/ml of ozone, at a flow rate of 240±24 ml/min for 3 minutes; • 3) Ultra-violet light at a wavelength of 253.7 nm, and a total energy of 2.0 joules/cm^2.
(§2) The ex vivo treatment of the patient's blood sample is performed within a Blood Treatment Unit (model #V7001), generally described in U.S. Pat. No. 4,968,483 Mueller. The Unit regulates and monitors these physicochemical agents. The temperature of the blood is raised to 42.5° C., a process that takes up to 8 minutes depending upon the starting temperature of the blood sample. Before this temperature is reached the UV lights turn on, so that they reach maximum output by the time that the gas flow is initiated, which occurs when the temperature of the blood reaches 42.5° C. The total time of exposure to UV light is about 9 minutes. The gas mixture is bubbled through the blood sample at a flow rate of 240±24 ml/min for a period of 3 minutes while the temperature of the blood is maintained and UV irradiation continues. At the end of the treatment with the three stimuli (stressors), the blood is allowed to settle for 7 minutes. The device then signals that the treatment has been completed successfully. The entire process takes about 20 minutes.
A person with intermittent claudication (a cramping pain caused by arterial obstruction and indicative of the presence of a relatively advanced stage of atherosclerosis) in their left leg, was administered fluvastatin 20 mg. daily for hypercholesterolemia. Their initial ankle/brachial artery pressure ratio (ABPI) in the left leg was 0.60, normal values being greater than 0.9. […]

[2] = Posterior tibial/brachial and dorsalis/brachial pressure index in patient with peripheral arterial occlusive disease
Method: as §1, §2
(§3) In a separate investigation, a patient suffering from peripheral arterial occlusive disease (a consequence of atherosclerosis) and receiving a regular, normal daily dose of lovastatin received 10 treatments of autologous stressed blood prepared as described above (10 ml aliquots, administered intramuscularly) over a 14-week period. As a result, their posterior tibial/brachial pressure index increased from 0.69 to 0.85, a very significant change.

[3] = Claudication distance in patient with peripheral arterial occlusive disease; details: regular daily lovastatin plus 10 i.m. treatments of 10 ml autologous stressed blood over 14 weeks
Method: as §3

[4] = regular daily lovastatin plus 10 i.m. treatments of 10 ml autologous stressed blood over 14 weeks
[5] = regular daily lovastatin, before stressed blood treatments

| Compound | ankle/brachial artery pressure ratio (ABPI) ([1]; fluvastatin 20 mg daily plus 9 i.m. treatments with 10 ml stressed autologous blood over 3 weeks) | ankle/brachial artery pressure ratio (ABPI) ([1]; fluvastatin 20 mg daily plus stressed blood, 2 months after the end of treatment schedule) | initial ankle/brachial artery pressure ratio (ABPI) ([1]; fluvastatin 20 mg daily, before stressed blood treatments, normal values greater than 0.9) | dorsalis (foot artery)/brachial pressure index [2, 4] | posterior tibial/brachial pressure index [2, 4] | dorsalis (foot artery)/brachial pressure index [2, 5] | posterior tibial/brachial pressure index [2, 5] | claudication distance (walking distance before experiencing cramping pain in the legs) [3] |
| --- | --- | --- | --- | --- | --- | --- | --- | --- |
| CC(C)n1c(/C=C/C(O)CC(O)CC(=O)O)c(-c2ccc(F)cc2)c2ccccc21 (centres unmarked) [fluvastatin] | 0.66 | 0.75 | 0.60 |  |  |  |  |  |
| CC[C@H](C)C(=O)O[C@H]1C[C@@H](C)C=C2C=C[C@H](C)[C@H](CC[C@@H]3C[C@@H](O)CC(=O)O3)[C@H]21 [lovastatin] |  |  |  | 0.85 | 0.85 | 0.77 | 0.69 | improved |
